ChEMBL document CHEMBL3217746, “Edaravone containing isoindoline nitroxides for the potential treatment of cardiovascular ischaemia” (Medchemcomm, 2011)
Calls of active or inactive are those of the source. The rule behind the calls is not given here.

Columns and labels:
H9c2 [1] = experiment: Cardioprotective activity in rat H9c2 cells hypoxia-induced ischaemic model assessed as decrease in cell death at 1 to 100 uM by propidium iodide exclusion assay; type: functional, cell-based
H9c2 [2] = experiment: Cardioprotective activity in rat H9c2 cells hypoxia-induced ischaemic model assessed as maximal decrease in cell death at 100 uM by propidium iodide exclusion assay; type: functional, cell-based
[3] = Peak plasma concentration in rat at 1.5 mg/kg, iv bolus dose; type: ADME, organism-based; set-up: dose 1.5 mg/kg, route intravenous
Rattus norvegicus = experiment: Cardioprotective activity against iv dosed ischaemic brain injury rat model assessed as effective dose after 30 mins; type: functional
H9c2 [4] = experiment: Cardioprotective activity in rat H9c2 cells hypoxia-induced ischaemic model assessed as maximal decrease in cell death at 10 uM by propidium iodide exclusion assay; type: functional

In the case of `CC1=NN(c2ccc3c(c2)C(C)(C)N([O])C3(C)C)C(=O)C1`, the inhibition (H9c2 [1]) is reported as “Active” and the inhibition (H9c2 [2]) is reported as 85.5%.

With `CON1C(C)(C)c2ccc(N3N=C(C)CC3=O)cc2C1(C)C` the inhibition (H9c2 [1]) was “Active”.

With `CC1=NN(c2ccccc2)C(=O)C1` [EDARAVONE] the inhibition (H9c2 [1]) was “Active”, the Cmax [3] was 20 µM and the ED (Rattus norvegicus) was 3 mg/kg.

For `OC[C@H]1O[C@@H](n2cnc3c(NC4CCCC4)ncnc32)[C@H](O)[C@@H]1O` [N6-CYCLOPENTYLADENOSINE], the inhibition at 10 µM (H9c2 [4]) was 75.4%.
